Where “and” joins values, the source holds several entries; their conditions need not be identical. Identical values can stand only once. Blank lines part the entries; values can stand above or below the molecule they belong to.
Assay: solvent given as SMILES
[1] = in O=P(c1ccccc1)(c1ccccc1)c1ccccc1Oc1ccccc1P(=O)(c1ccccc1)c1ccccc1

Compound: COC(=O)c1cc(=O)n(C)c2cc(-c3ccc(N4CCN(C)CC4)cc3)sc12
fluorescence lifetime (in ClCCl): 1.5 ns

Compound: N#Cc1c(-n2c3ccc(Cl)cc3c3cc(Cl)ccc32)c(C#N)c(-n2c3ccc(Cl)cc3c3cc(Cl)ccc32)c(-n2c3ccc(Cl)cc3c3cc(Cl)ccc32)c1-n1c2ccc(Cl)cc2c2cc(Cl)ccc21
fluorescence lifetime (in Cc1ccccc1): 0.4 ns

Compound: CCCCCCn1c2cc(C(=O)OCC)ccc2c2c1c1ccc(C(=O)OCC)cc1n2CCCCCC
fluorescence lifetime (in CCCO): 6.3 ns

Compound: CCC1(CC)c2cc(-c3cccs3)ccc2-c2c1c1c(c3c2C(CC)(CC)c2cc(-c4cccs4)ccc2-3)C(CC)(CC)c2cc(-c3cccs3)ccc2-1
fluorescence lifetime (in C1CCOC1): 2.1 ns

Compound: NNC(=O)NNN1C(=O)c2cc(S(=O)(=O)[O-])cc3c(N)c(S(=O)(=O)[O-])cc(c23)C1=O
fluorescence lifetime (in C1COCCO1): 3.4 ns | fluorescence lifetime (in CC#N): 10.7 ns | fluorescence lifetime (in CC(C)=O): 4.6 ns | fluorescence lifetime (in CC(C)O): 9.6 ns | fluorescence lifetime (in CCCCCCCCO): 8.8 ns | fluorescence lifetime (in CCO): 9.2 ns | fluorescence lifetime (in CCOC(C)=O): 2.5 ns | fluorescence lifetime (in CO): 9.5 ns | fluorescence lifetime (in CS(C)=O): 10.7 ns | fluorescence lifetime (in O): 5.1 ns | fluorescence lifetime (in OCCO): 7.9 ns | fluorescence lifetime (in c1ccncc1): 6.3 ns

Compound: c1ccc(-c2cc(-c3ccccc3)cc(-c3ccc4c(c3)C3(c5cc(-c6cc(-c7ccccc7)cc(-c7ccccc7)c6)ccc5-4)c4ccccc4-c4c3c3c5ccccc5ccc3c3ccccc43)c2)cc1
fluorescence lifetime (in Cc1ccccc1): 3.07 ns

Compound: CCOC(=O)CCCCCn1c2ccc([N+](=O)[O-])cc2c(=O)c2cc3c(cc21)c(=O)c1cc([N+](=O)[O-])ccc1n3CCCCCC(=O)OCC
fluorescence lifetime (in ClCCl): 5.1 ns

Compound: COc1ccc(-c2nc(-c3ccc(-c4nc(-c5ccc(OC)cc5)c(-c5ccc(OC)cc5)[nH]4)cc3)[nH]c2-c2ccc(OC)cc2)cc1
fluorescence lifetime (in CC#N): 1.1 ns and 1.24 ns

Compound: CCN(CC)c1ccc2cc(C#N)/c(=N\C(=O)C(C)C)oc2c1
fluorescence lifetime (in ClCCl): 3.1 ns

Compound: COc1ccc(/C=C/c2ccc(-c3ccc(C)cn3)nc2)cc1
fluorescence lifetime (in CC#N): 0.58 ns

Compound: C[n+]1c2c(c(-c3ccccc3)c3c1CCCC3)CCCC2
fluorescence lifetime (in CCO): 5.39 ns

Compound: COc1c2ccccc2c(OC)c2c1c1cc(C)ccc1n2C
fluorescence lifetime (in C1CCCCC1): 24.6 ns | fluorescence lifetime (in CC#N): 31.1 ns | fluorescence lifetime (in CO): 29.8 ns | fluorescence lifetime (in ClCCl): 27.6 ns

Compound: CC1(C)c2ccccc2N(c2ccc(C(=C(C#N)C#N)c3ccc(N4c5ccccc5C(C)(C)c5ccccc54)cc3)cc2)c2ccccc21
fluorescence lifetime (in Cc1ccccc1): 3.1 ns

Compound: CCN(CC)c1ccc2cc(/C(Cl)=C/C=C/C(=C(C#N)C#N)c3ccc4c(c3)c3ccccc3n4CC)c(=O)oc2c1
fluorescence lifetime (in CC(C)=O): 0.47 ns | fluorescence lifetime (in CCOC(C)=O): 1.14 ns | fluorescence lifetime (in CN(C)C=O): 0.86 ns | fluorescence lifetime (in CS(C)=O): 0.36 ns | fluorescence lifetime (in Cc1ccccc1): 1.39 ns | fluorescence lifetime (in ClCCl): 1.82 ns

Compound: COC(=O)C(Cc1ccc2oc(-c3ccc(Nc4ccccc4)cc3)nc2c1)NC(=O)OC(C)(C)C (configuration not stated)
fluorescence lifetime (in C1CCCCC1): 1.23 ns | fluorescence lifetime (in C1CCOC1): 2.68 ns | fluorescence lifetime (in C1COCCO1): 1.83 ns | fluorescence lifetime (in CC1CCCO1): 2.75 ns | fluorescence lifetime (in CC1COC(=O)O1): 1.98 ns | fluorescence lifetime (in CC#N): 2.26 ns | fluorescence lifetime (in CC(C)=O): 2.96 ns | fluorescence lifetime (in CC(C)CC(C)(C)C): 1.01 ns | fluorescence lifetime (in CC(C)CO): 2.23 ns | fluorescence lifetime (in CC(C)O): 2.43 ns | fluorescence lifetime (in CC(C)OC(C)C): 2.48 ns | fluorescence lifetime (in CC(O)CO): 0.54 ns | fluorescence lifetime (in CCC(C)CC): 1.03 ns | fluorescence lifetime (in CCCCC): 1.14 ns | fluorescence lifetime (in CCCCCC): 1.02 ns | fluorescence lifetime (in CCCCCCCCC): 1.06 ns | fluorescence lifetime (in CCCCCCCCCC): 1.09 ns | fluorescence lifetime (in CCCCCCCO): 2.23 ns | fluorescence lifetime (in CCCCCCO): 2.41 ns | fluorescence lifetime (in CCCCCO): 2.89 ns | fluorescence lifetime (in CCCCO): 2 ns | fluorescence lifetime (in CCO): 0.8 ns | fluorescence lifetime (in CCOC(C)=O): 2.46 ns | fluorescence lifetime (in CCOCC): 2.27 ns | fluorescence lifetime (in CN(C)C=O): 2.45 ns | fluorescence lifetime (in CO): 0.43 ns | fluorescence lifetime (in COCCOC): 0.9 ns | fluorescence lifetime (in CS(C)=O): 1.92 ns | fluorescence lifetime (in Cc1ccccc1): 1.36 ns | fluorescence lifetime (in Cc1ccccc1C): 1.35 ns | fluorescence lifetime (in ClC(Cl)Cl): 2.26 ns | fluorescence lifetime (in ClCCl): 3.1 ns | fluorescence lifetime (in NC=O): 1.7 ns | fluorescence lifetime (in OC1CCCCC1): 2.23 ns | fluorescence lifetime (in OCCO): 2.95 ns | fluorescence lifetime (in c1ccccc1): 1.42 ns

Compound: CN1C(=CC2=C([O-])C(=CC3=[N+](C)c4ccc(Cl)cc4C3(C)C)C2=O)C(C)(C)c2cc(Cl)ccc21
fluorescence lifetime (in CO): 0.21 ns | fluorescence lifetime (in ClC(Cl)Cl): 1.42 ns

Compound: COc1ccc2c3ccc(OC)cc3c3cc4c(C)cc(=O)oc4cc3c2c1
fluorescence lifetime (in ClC(Cl)Cl): 6.2 ns

Compound: CC(C)(C)c1cc2c3cc(C(C)(C)C)c(-c4cc5cc6c7cccc8cccc(c9cc(C(C)(C)C)cc(c5cc4C(C)(C)C)c96)c87)cc3cc3c4cccc5cccc(c(c1)c23)c54
fluorescence lifetime (in CC1CCCCC1): 3.4 ns

Compound: N#Cc1c(-n2c3ccccc3c3cc(I)ccc32)c(C#N)c(-n2c3ccccc3c3cc(I)ccc32)c(-n2c3ccccc3c3cc(I)ccc32)c1-n1c2ccccc2c2cc(I)ccc21
fluorescence lifetime (in Cc1ccccc1): 0.4 ns

Compound: CC(C)(C)c1ccc2c(c1)c1cc(C(C)(C)C)ccc1n2-c1ccc(S(=O)(=O)c2ccc(-n3c4ccc(C(C)(C)C)cc4c4cc(C(C)(C)C)ccc43)cc2)cc1
fluorescence lifetime (in Cc1ccccc1): 5.3 ns | fluorescence lifetime [1]: 7.6 ns

Compound: CC(=O)[B-]1(C(C)=O)OC(c2ccc3ccccc3c2)=CC(c2ccc3ccccc3c2)=[O+]1
fluorescence lifetime (in CC#N): 5.5 ns | fluorescence lifetime (in ClC(Cl)(Cl)Cl): 1.1 ns

Compound: O=Cc1ccc(N(c2ccc(C=O)cc2)c2ccc(-c3ccc4c(c3)C(=O)c3ccccc3C4=O)cc2)cc1
fluorescence lifetime (in C1CCOC1): 2.01 ns | fluorescence lifetime (in CCOC(C)=O): 1.49 ns | fluorescence lifetime (in CCOCC): 6.6 ns | fluorescence lifetime (in Cc1ccccc1): 6.83 ns | fluorescence lifetime (in ClC(Cl)(Cl)Cl): 2.82 ns | fluorescence lifetime (in ClCCl): 0.79 ns

Compound: CCC1(CC)c2ccccc2-c2c1c1c(c3c2C(CC)(CC)c2cc(B(c4c(C)cc(C)cc4C)c4c(C)cc(C)cc4C)ccc2-3)C(CC)(CC)c2cc(B(c3c(C)cc(C)cc3C)c3c(C)cc(C)cc3C)ccc2-1
fluorescence lifetime (in C1CCOC1): 4.2 ns

Compound: Nc1cccc2cc3ccccc3cc12
fluorescence lifetime (in C1CCCCC1): 29 ns

Compound: C(#Cc1nccnc1C#Cc1ccccc1)c1ccccc1
fluorescence lifetime (in CC#N): 0.336 ns

Compound: O=C(O)CCCCCn1c2ccc(Br)cc2c(=O)c2cc(S(=O)(=O)O)ccc21
fluorescence lifetime (in O): 7.1 ns

Compound: CCCCCCCCN1c2ccccc2Sc2cc(/C=C/c3ccc(N(c4ccc(/C=C/c5ccc6c(c5)Sc5ccccc5N6CCCCCCCC)cc4)c4ccc(/C=C/c5ccc(/C=C/c6ccc(N(c7ccc(/C=C/c8ccc(N(c9ccccc9)c9ccccc9)cc8)cc7)c7ccc(/C=C/c8ccc(N(c9ccccc9)c9ccccc9)cc8)cc7)cc6)c6nsnc56)cc4)cc3)ccc21
fluorescence lifetime (in C1CCOC1): 1.76 ns | fluorescence lifetime (in CCOC(C)=O): 1.79 ns | fluorescence lifetime (in Cc1ccccc1): 3.49 ns | fluorescence lifetime (in ClC(Cl)Cl): 2.38 ns | fluorescence lifetime (in ClCCl): 1.75 ns

Compound: COc1ccc(-c2csc(/C(C#N)=C/c3ccc(C#N)cc3)n2)cc1
fluorescence lifetime (in CC#N): 1.43 ns

Compound: CC1(C)c2ccccc2N(c2c(F)cc(-c3nnc(-c4ccccc4)o3)cc2F)c2ccccc21
fluorescence lifetime (in Cc1ccccc1): 8.8 ns

Compound: F[B-]1(F)Oc2ccccc2-c2cc(-n3c4ccccc4c4ccccc43)cc[n+]21
fluorescence lifetime [1]: 6.7 ns

Compound: COc1ccc(-c2cc(-c3ccc(OC)cc3)c3c(N)nc(N4CCCC4)c(C#N)c3n2)cc1
fluorescence lifetime (in CC#N): 11.6 ns | fluorescence lifetime (in CC(C)=O): 10 ns | fluorescence lifetime (in CC(C)O): 11.6 ns | fluorescence lifetime (in CO): 10.3 ns | fluorescence lifetime (in ClC(Cl)Cl): 11.6 ns | fluorescence lifetime (in ClCCl): 13.2 ns | fluorescence lifetime (in c1ccccc1): 12 ns

Compound: C=CCNS(=O)(=O)c1ccc2c(c1)C(=O)/C(=C1\Sc3ccc(S(=O)(=O)NCC=C)cc3C1=O)S2
fluorescence lifetime (in CN(C)C=O): 8.17 ns | fluorescence lifetime (in CS(C)=O): 0.06 ns

Compound: CC1=C(I)C(C)=[N+]2C1=C(c1c(-c3ccccn3)nc3ccccn13)c1c(C)c(I)c(C)n1[B-]2(F)F
fluorescence lifetime (in ClCCl): 0.4 ns

Compound: CCCCCCCCCCN1C(=O)c2cc(NCCCOCCO)c3c4c(cc(NCCCOCCO)c(c24)C1=O)C(=O)N(CCCCCCCCCC)C3=O
fluorescence lifetime (in CO): 7.8 ns | fluorescence lifetime (in ClC(Cl)Cl): 9.7 ns

Now from value to molecule:

fluorescence lifetime (in ClCCl): 1.09 ns
Compound: CCCCCc1c(C(=O)c2ccc3c4c(cccc24)-c2cccc4c2C3CC=C4)c2ccc3cccc4c5cccc6ccc1c(c65)c2c34 (configuration not stated)

fluorescence lifetime (in ClCCl): 1.36 ns
Compound: COC(=O)c1cc(=O)n(C)c2cc(-c3cc(OC)c(OC)c(OC)c3)sc12

fluorescence lifetime (in C1CCCCC1): 1.08 ns | fluorescence lifetime (in CC#N): 1.58 ns
Compound: CN(C)c1ccc(-c2nc3cccnc3[nH]2)cc1

fluorescence lifetime (in ClCCl): 3.54 ns
Compound: N#Cc1ccc(N(c2ccc(C#N)cc2)c2ccc3c4cccc5c(N(c6ccc(C#N)cc6)c6ccc(C#N)cc6)ccc(c6cccc2c63)c54)cc1

fluorescence lifetime (in ClC(Cl)Cl): 0.92 ns
Compound: F[B-]1(F)OC(c2ccc(C(F)(F)F)cc2)=Cc2ccc3ccccc3[n+]21

fluorescence lifetime (in CC#N): 1.91 ns | fluorescence lifetime (in ClCCl): 1.37 ns
Compound: Nc1nc2ccc(Br)cc2s1

fluorescence lifetime (in CCO): 2.1 ns
Compound: Cc1cc(C)c(-c2nnc(-c3ccc(-n4c5ccccc5c5ccccc54)cc3)o2)c(C)c1

fluorescence lifetime (in C1CCOC1): 3.8 ns
Compound: CCCCn1c2ccc(C#Cc3cccs3)cc2c2c1c1c3ccc(C#Cc4cccs4)cc3n(CCCC)c1c1c3ccc(C#Cc4cccs4)cc3n(CCCC)c21

fluorescence lifetime (in ClCCl): 0.58 ns
Compound: COC(=O)c1[nH]c(-c2ccc(Br)cc2)c2nnc3ccc(OC)cc3c12

fluorescence lifetime (in C1CCOC1): 1.62 ns
Compound: CC(C)(C)c1ccc(C2=C(c3ccc(C(C)(C)C)cc3)[Si](c3ccccc3)(c3ccccc3)c3ccccc32)cc1

fluorescence lifetime (in CC#N): 232 ns | fluorescence lifetime (in CO): 119 ns | fluorescence lifetime (in ClC(Cl)Cl): 38 ns
Compound: NCc1ccc2ccc3cccc4ccc1c2c34

fluorescence lifetime (in C1CCOC1): 6.9 ns | fluorescence lifetime (in C1COCCO1): 7.5 ns | fluorescence lifetime (in CC#N): 8 ns | fluorescence lifetime (in CC(C)O): 9 ns | fluorescence lifetime (in CCO): 8.7 ns | fluorescence lifetime (in CO): 8.2 ns | fluorescence lifetime (in CS(C)=O): 14.5 ns | fluorescence lifetime (in NC=O): 15.7 ns | fluorescence lifetime (in O): 2 ns | fluorescence lifetime (in OCC(F)(F)F): 1.2 ns | fluorescence lifetime (in [2H]O[2H]): 2.3 ns
Compound: N#Cc1cccc2cc[nH]c12

fluorescence lifetime (in ClCCl): 9 ns
Compound: COc1ccc(N(c2ccccc2)c2ccc3ccc4c(N(c5ccccc5)c5ccc(OC)cc5)ccc5ccc2c3c54)cc1

fluorescence lifetime (in ClC(Cl)Cl): 0.173 ns
Compound: F[B-]1(F)OC(c2cccc(Br)c2)=Cc2c3ccccc3cc[n+]21

fluorescence lifetime (in ClC(Cl)Cl): 2.74 ns
Compound: Cc1cc(C2=Cc3cccc[n+]3[B-](F)(F)O2)ccc1N(C)C

— the Deep4Chem optical property database
